Test results as given in ChEMBL document CHEMBL1649268, “Comparative in vitro activity profile of oritavancin against recent gram-positive clinical isolates” (2009).

Legend:
Streptococcus pyogenes [1] = assay: Antimicrobial activity against erythromycin-susceptible Streptococcus pyogenes clinical isolates assessed as percent susceptible isolates by broth microdilution method; assay type: functional
Streptococcus agalactiae [2] = assay: Antimicrobial activity against erythromycin-susceptible Streptococcus agalactiae clinical isolates assessed as percent susceptible isolates by broth microdilution method; assay type: functional
Streptococcus [3] = assay: Antimicrobial activity against erythromycin-susceptible Streptococcus Group F clinical isolates by broth microdilution method; assay type: functional
[4] = Antimicrobial activity against erythromycin-nonsusceptible Streptococcus Group C clinical isolates by broth microdilution method; assay type: functional; conditions: Streptococcus sp. 'group C'
Streptococcus pneumoniae [5] = assay: Antimicrobial activity against penicillin-resistant Streptococcus pneumoniae clinical isolates by broth microdilution method; assay type: functional
Streptococcus [6] = assay: Antimicrobial activity against erythromycin-nonsusceptible Streptococcus Group F clinical isolates by broth microdilution method; assay type: functional
Enterococcus faecalis [7] = assay: Antimicrobial activity against vancomycin-nonsusceptible Enterococcus faecalis clinical isolates assessed as percent susceptible isolates by broth microdilution method; assay type: functional
Streptococcus pneumoniae [8] = assay: Antimicrobial activity against Streptococcus pneumoniae clinical isolates assessed as percent susceptible isolates by broth microdilution method; assay type: functional
Streptococcus agalactiae [9] = assay: Antimicrobial activity against erythromycin-susceptible Streptococcus agalactiae clinical isolates by broth microdilution method; assay type: functional
[10] = Antimicrobial activity against erythromycin-nonsusceptible Streptococcus Group G clinical isolates by broth microdilution method; assay type: functional; conditions: Streptococcus sp. 'group G'
Streptococcus pneumoniae [11] = assay: Antimicrobial activity against penicillin-susceptible Streptococcus pneumoniae clinical isolates assessed as percent susceptible isolates by broth microdilution method; assay type: functional
Streptococcus agalactiae [12] = assay: Antimicrobial activity against Streptococcus agalactiae clinical isolates assessed as percent susceptible isolates by broth microdilution method; assay type: functional
Streptococcus [13] = assay: Antimicrobial activity against Streptococcus Group F clinical isolates by broth microdilution method; assay type: functional
Enterococcus faecalis [14] = assay: Antimicrobial activity against Enterococcus faecalis clinical isolates by broth microdilution method; assay type: functional
Enterococcus faecalis [15] = assay: Antimicrobial activity against vancomycin-susceptible Enterococcus faecalis clinical isolates assessed as resistant isolates by broth microdilution method; assay type: functional
[16] = Antimicrobial activity against Streptococcus Group C clinical isolates assessed as resistant isolates by broth microdilution method; assay type: functional, Streptococcus sp. 'group C'
Streptococcus pneumoniae [17] = assay: Antimicrobial activity against penicillin-resistant Streptococcus pneumoniae clinical isolates assessed as percent susceptible isolates by broth microdilution method; assay type: functional
Streptococcus agalactiae [18] = assay: Antimicrobial activity against erythromycin-nonsusceptible Streptococcus agalactiae clinical isolates assessed as resistant isolates by broth microdilution method; assay type: functional
Enterococcus faecium [19] = assay: Antimicrobial activity against vancomycin-susceptible Enterococcus faecium clinical isolates by broth microdilution method; assay type: functional
Streptococcus agalactiae [20] = assay: Antimicrobial activity against erythromycin-nonsusceptible Streptococcus agalactiae clinical isolates by broth microdilution method; assay type: functional
Streptococcus pneumoniae [21] = assay: Antimicrobial activity against penicillin-susceptible Streptococcus pneumoniae clinical isolates by broth microdilution method; assay type: functional
Streptococcus agalactiae [22] = assay: Antimicrobial activity against erythromycin-nonsusceptible Streptococcus agalactiae clinical isolates assessed as percent susceptible isolates by broth microdilution method; assay type: functional
Streptococcus pyogenes [23] = assay: Antimicrobial activity against Streptococcus pyogenes clinical isolates assessed as percent susceptible isolates by broth microdilution method; assay type: functional
Streptococcus agalactiae [24] = assay: Antimicrobial activity against Streptococcus agalactiae clinical isolates by broth microdilution method; assay type: functional
[25] = Antimicrobial activity against erythromycin-susceptible Streptococcus Group G clinical isolates assessed as percent susceptible isolates by broth microdilution method; assay type: functional, Streptococcus sp. 'group G'
Enterococcus faecium [26] = assay: Antimicrobial activity against vancomycin-susceptible Enterococcus faecium clinical isolates assessed as resistant isolates by broth microdilution method; assay type: functional
Enterococcus faecalis [27] = assay: Antimicrobial activity against Enterococcus faecalis expressing VanA gene clinical isolates assessed as percent susceptible isolates by broth microdilution method; assay type: functional
[28] = Antimicrobial activity against Streptococcus Group C clinical isolates by broth microdilution method; assay type: functional; conditions: Streptococcus sp. 'group C'
Streptococcus pyogenes [29] = assay: Antimicrobial activity against erythromycin-susceptible Streptococcus pyogenes clinical isolates by broth microdilution method; assay type: functional
[30] = Antimicrobial activity against erythromycin-susceptible Streptococcus Group C clinical isolates assessed as resistant isolates by broth microdilution method; assay type: functional, Streptococcus sp. 'group C'
Streptococcus pneumoniae [31] = assay: Antimicrobial activity against penicillin-resistant Streptococcus pneumoniae clinical isolates assessed as resistant isolates by broth microdilution method; assay type: functional
Enterococcus faecalis [32] = assay: Antimicrobial activity against Enterococcus faecalis expressing VanB gene clinical isolates by broth microdilution method; assay type: functional
Streptococcus pyogenes [33] = assay: Antimicrobial activity against Streptococcus pyogenes clinical isolates by broth microdilution method; assay type: functional
Streptococcus pneumoniae [34] = assay: Antimicrobial activity against penicillin-intermediate Streptococcus pneumoniae clinical isolates by broth microdilution method; assay type: functional
Enterococcus faecalis [35] = assay: Antimicrobial activity against Enterococcus faecalis clinical isolates assessed as resistant isolates by broth microdilution method; assay type: functional
Enterococcus faecalis [36] = assay: Antimicrobial activity against Enterococcus faecalis expressing VanB gene clinical isolates assessed as percent susceptible isolates by broth microdilution method; assay type: functional
Enterococcus faecalis [37] = assay: Antimicrobial activity against vancomycin-nonsusceptible Enterococcus faecalis clinical isolates by broth microdilution method; assay type: functional
[38] = Antimicrobial activity against erythromycin-susceptible Streptococcus Group C clinical isolates by broth microdilution method; assay type: functional; conditions: Streptococcus sp. 'group C'
Enterococcus faecium [39] = assay: Antimicrobial activity against Enterococcus faecium expressing VanA gene clinical isolates by broth microdilution method; assay type: functional
Enterococcus faecalis [40] = assay: Antimicrobial activity against vancomycin-nonsusceptible Enterococcus faecalis clinical isolates assessed as resistant isolates by broth microdilution method; assay type: functional
[41] = Antimicrobial activity against Streptococcus Group G clinical isolates by broth microdilution method; assay type: functional; conditions: Streptococcus sp. 'group G'
[42] = Antimicrobial activity against erythromycin-susceptible Streptococcus Group G clinical isolates assessed as resistant isolates by broth microdilution method; assay type: functional, Streptococcus sp. 'group G'
[43] = Antimicrobial activity against erythromycin-susceptible Streptococcus Group G clinical isolates by broth microdilution method; assay type: functional; conditions: Streptococcus sp. 'group G'
Streptococcus pneumoniae [44] = assay: Antimicrobial activity against Streptococcus pneumoniae clinical isolates by broth microdilution method; assay type: functional
Streptococcus agalactiae [45] = assay: Antimicrobial activity against erythromycin-susceptible Streptococcus agalactiae clinical isolates assessed as resistant isolates by broth microdilution method; assay type: functional
Streptococcus agalactiae [46] = assay: Antimicrobial activity against Streptococcus agalactiae clinical isolates assessed as resistant isolates by broth microdilution method; assay type: functional
Enterococcus faecalis [47] = assay: Antimicrobial activity against vancomycin-susceptible Enterococcus faecalis clinical isolates by broth microdilution method; assay type: functional
Streptococcus pyogenes [48] = assay: Antimicrobial activity against erythromycin-nonsusceptible Streptococcus pyogenes clinical isolates by broth microdilution method; assay type: functional
Streptococcus pneumoniae [49] = assay: Antimicrobial activity against penicillin-intermediate Streptococcus pneumoniae clinical isolates assessed as percent susceptible isolates by broth microdilution method; assay type: functional
[50] = Antimicrobial activity against erythromycin-susceptible Streptococcus Group C clinical isolates assessed as percent susceptible isolates by broth microdilution method; assay type: functional, Streptococcus sp. 'group C'
Streptococcus pyogenes [51] = assay: Antimicrobial activity against erythromycin-nonsusceptible Streptococcus pyogenes clinical isolates assessed as percent susceptible isolates by broth microdilution method; assay type: functional

Question: For `C[C@H]1COc2c(N3CCN(C)CC3)c(F)cc3c(=O)c(C(=O)O)cn1c23.C[C@H]1COc2c(N3CCN(C)CC3)c(F)cc3c(=O)c(C(=O)O)cn1c23.O` [LEVOFLOXACIN], which Activity (Streptococcus pyogenes [1]) is on record?
Answer: The Activity was 100%.

Question: What about the Activity (Streptococcus agalactiae [2]) of the same compound?
Answer: The Activity was 98.6%.

Question: What about the MIC90 (Streptococcus [3]) of the same compound?
Answer: The MIC90 was 0.5 µg/mL.

Question: And the MIC90 [4]?
Answer: The MIC90 was 0.5 µg/mL.

Question: And the MIC90 (Streptococcus pneumoniae [5])?
Answer: The MIC90 was 1 µg/mL.

Question: What about the MIC90 (Streptococcus [6]) of the same compound?
Answer: The MIC90 was 0.5 µg/mL.

Question: What about the Activity (Enterococcus faecalis [7]) of the same compound?
Answer: Its Activity is 0%.

Question: And the Activity (Streptococcus pneumoniae [8])?
Answer: Its Activity is 99.1%.

Question: And the MIC90 (Streptococcus agalactiae [9])?
Answer: Its MIC90 is 1 µg/mL.

Question: What about the MIC90 [10] of the same compound?
Answer: Its MIC90 is 0.5 µg/mL.

Question: And the Activity (Streptococcus pneumoniae [11])?
Answer: Its Activity is 99.5%.

Question: And the Activity (Streptococcus agalactiae [12])?
Answer: Its Activity is 97.8%.

Question: What about the MIC90 (Streptococcus [13]) of the same compound?
Answer: The MIC90 was 0.5 µg/mL.

Question: And the MIC90 (Enterococcus faecalis [14])?
Answer: The MIC90 was > 16 µg/mL.

Question: And the Activity (Enterococcus faecalis [15])?
Answer: Its Activity is 35.2%.

Question: What about the Activity [16] of the same compound?
Answer: Its Activity is 0%.

Question: And the Activity (Streptococcus pneumoniae [17])?
Answer: Its Activity is 99.3%.

Question: What about the Activity (Streptococcus agalactiae [18]) of the same compound?
Answer: Its Activity is 4.1%.

Question: What about the MIC90 (Enterococcus faecium [19]) of the same compound?
Answer: Its MIC90 is > 16 µg/mL.

Question: What about the MIC90 (Streptococcus agalactiae [20]) of the same compound?
Answer: Its MIC90 is 1 µg/mL.

Question: And the MIC90 (Streptococcus pneumoniae [21])?
Answer: Its MIC90 is 1 µg/mL.

Question: What about the Activity (Streptococcus agalactiae [22]) of the same compound?
Answer: The Activity was 95.9%.

Question: What about the Activity (Streptococcus pyogenes [23]) of the same compound?
Answer: The Activity was 99.9%.

Question: And the MIC90 (Streptococcus agalactiae [24])?
Answer: The MIC90 was 1 µg/mL.

Question: And the Activity [25]?
Answer: The Activity was 100%.

Question: What about the Activity (Enterococcus faecium [26]) of the same compound?
Answer: The Activity was 66%.

Question: What about the Activity (Enterococcus faecalis [27]) of the same compound?
Answer: Its Activity is 0%.

Question: What about the MIC90 [28] of the same compound?
Answer: Its MIC90 is 0.5 µg/mL.

Question: What about the MIC90 (Streptococcus pyogenes [29]) of the same compound?
Answer: The MIC90 was 0.5 µg/mL.

Question: And the Activity [30]?
Answer: The Activity was 0%.

Question: What about the “Percent of isolates resistant” value (Streptococcus pneumoniae [31]) of the same compound?
Answer: Its value is 0.7%.

Question: And the MIC90 (Enterococcus faecalis [32])?
Answer: Its MIC90 is > 16 µg/mL.

Question: What about the MIC90 (Streptococcus pyogenes [33]) of the same compound?
Answer: Its MIC90 is 0.5 µg/mL.

Question: What about the MIC90 (Streptococcus pneumoniae [34]) of the same compound?
Answer: The MIC90 was 1 µg/mL.

Question: What about the Activity (Enterococcus faecalis [35]) of the same compound?
Answer: Its Activity is 38.4%.

Question: And the Activity (Enterococcus faecalis [36])?
Answer: The Activity was 0%.

Question: What about the MIC90 (Enterococcus faecalis [37]) of the same compound?
Answer: The MIC90 was > 16 µg/mL.

Question: And the MIC90 [38]?
Answer: Its MIC90 is 0.5 µg/mL.

Question: And the MIC90 (Enterococcus faecium [39])?
Answer: Its MIC90 is > 16 µg/mL.

Question: What about the Activity (Enterococcus faecalis [40]) of the same compound?
Answer: The Activity was 100%.

Question: And the MIC90 [41]?
Answer: Its MIC90 is 0.5 µg/mL.

Question: What about the Activity [42] of the same compound?
Answer: Its Activity is 0%.

Question: And the MIC90 [43]?
Answer: Its MIC90 is 0.5 µg/mL.

Question: And the MIC90 (Streptococcus pneumoniae [44])?
Answer: Its MIC90 is 1 µg/mL.

Question: And the Activity (Streptococcus agalactiae [45])?
Answer: The Activity was 1.4%.

Question: What about the Activity (Streptococcus agalactiae [46]) of the same compound?
Answer: Its Activity is 2.2%.

Question: What about the MIC90 (Enterococcus faecalis [47]) of the same compound?
Answer: The MIC90 was > 16 µg/mL.

Question: What about the MIC90 (Streptococcus pyogenes [48]) of the same compound?
Answer: Its MIC90 is 1 µg/mL.

Question: What about the Activity (Streptococcus pneumoniae [49]) of the same compound?
Answer: The Activity was 97.7%.

Question: What about the Activity [50] of the same compound?
Answer: Its Activity is 100%.

Question: And the Activity (Streptococcus pyogenes [51])?
Answer: The Activity was 99.2%.
